Converted amounts (≈) assume the structure as drawn. Marks after values point to notes of the source that are not given here.
How the values were obtained:
APEC O1 = test: MIC and MBC determination in M63 media; assay type: cell-based; conditions: Escherichia coli
APEC O15 = test: MIC and MBC determination in M63 media; assay type: cell-based; conditions: Escherichia coli
APEC O35 = test: MIC and MBC determination in M63 media; assay type: cell-based; conditions: Escherichia coli
APEC O115 = test: MIC and MBC determination in M63 media; assay type: cell-based; conditions: Escherichia coli
APEC O78-53 = test: MIC and MBC determination in M63 media; assay type: cell-based; conditions: Escherichia coli; APEC O78-53, M63 media
Protocol: One microlitre SM of each concentration was transferred to each well of a 96-well plate containing 100 µL of the 0.05 OD600 adjusted APEC O78 culture in M63 media. Growth was monitored in Sunrise - Absorbance microplate reader as described above. MIC was indicated by lowest concentration of SM with non-elevated OD600 measurement. MBC was determined by absence of APEC growth on LB agar plate following subculture. […] Two independent experiments were conducted.

APEC O2-211 = test: MIC and MBC determination in M63 media; assay type: cell-based; conditions: Escherichia coli; APEC O2-211, M63 media
APEC O78 [1] = test: Bacterial cytological profiling by confocal microscopy; assay type: cell-based, Escherichia coli; conditions: 2X MBC, 2 h
Protocol: Confocal microscopy was used for bacterial cytological profiling (BCP) to identify the cellular pathways targeted by SMs as described previously. […] After incubation, treated cultures were centrifuged, washed, and resuspended in 100 µL PBS. FM4-64 (#T13320 Molecular Probes/Invitrogen) (1 µg/mL) and SYTO-9 (#S34854 Molecular Probes/Invitrogen) (5 µM) were added to the bacterial cultures and incubated for 45 mins at room temperature with shaking at 150 rpm. Cultures were then centrifuged, washed, and resuspended in PBS to 1/10th volume of the original cultures.

APEC O78 [2] = test: Crystal violet (CV) uptake assay; assay type: cell-based, Escherichia coli; conditions: 2X MBC, 30 mins; P < 0.05, Student's t-test
Protocol: (§1) Membrane permeability assays (crystal violet (CV) uptake and loss of 260/280 nm absorbing materials) were conducted as described previously. […] CV uptake was measured using the formula: (OD DMSO − OD SM/OD DMSO × 100). Two independent experiments in duplicates were conducted.

APEC O78 [3] = test: Loss of 260/280 nm absorbing materials assay; assay type: cell-based, Escherichia coli; conditions: 2X MBC, 1 h
Protocol: as §1

[4] = test system: intracellular APEC O1 in Caco-2 cells; test: Intracellular survival assay; assay type: cell-based, Escherichia coli
Protocol: (§2) Intracellular survival assay was conducted as described previously[28],[29] to determine the effect of cidal SMs on APEC survival in phagocytic (HD11, THP-1) and non-phagocytic (Caco-2) cells. Briefly, mid-logarithmic phase grown APEC O78, O1, and O2 were washed and adjusted to 1 × 10^7 CFU/mL in cell culture incomplete media (no FBS and antibiotics). One-hundred microlitres adjusted APEC suspension was added at multiplicity of infection (MOI) 10 to wells of 96-well cell culture plate containing cultured macrophage (HD11, THP-1) and epithelial cells (Caco-2) and incubated for 1 h and 3 h, respectively. […] The cells were then lysed with 100 µL of 0.1% Triton X-100 for 5 mins, serially diluted, and plated on LB agar plate to enumerate viable bacteria. The intracellular bacteria in SMs treated wells were compared with DMSO (1%) treated wells. Two independent experiments in duplicate wells for each concentration of SMs were conducted.

[5] = test system: intracellular APEC O1 in HD11 cells; test: Intracellular survival assay; assay type: cell-based, Escherichia coli
Protocol: as §2

[6] = test system: intracellular APEC O1 in THP-1 cells; test: Intracellular survival assay; assay type: cell-based, Escherichia coli
Protocol: as §2

[7] = test system: intracellular APEC O2 in Caco-2 cells; test: Intracellular survival assay; assay type: cell-based, Escherichia coli
Protocol: as §2

[8] = test system: intracellular APEC O2 in HD11 cells; test: Intracellular survival assay; assay type: cell-based, Escherichia coli
Protocol: as §2

[9] = test system: intracellular APEC O2 in THP-1 cells; test: Intracellular survival assay; assay type: cell-based, Escherichia coli
Protocol: as §2

[10] = test system: intracellular APEC O78 in Caco-2 cells; test: Intracellular survival assay; assay type: cell-based, Escherichia coli
Protocol: as §2

[11] = test system: intracellular APEC O78 in HD11 cells; test: Intracellular survival assay; assay type: cell-based, Escherichia coli
Protocol: as §2

[12] = test system: intracellular APEC O78 in THP-1 cells; test: Intracellular survival assay; assay type: cell-based, Escherichia coli
Protocol: as §2

[13] = test system: intracellular APEC O78, O2, and O1 in infected Caco-2, HD11, and THP1 cells; test: Intracellular survival assay, statements over all serotypes and cells; assay type: cell-based, Escherichia coli
Protocol: as §2

How did the MBC (APEC O1) turn out when `CC(=O)OC(C(Br)C(=O)c1ccc([N+](=O)[O-])cc1)C(Cl)(Cl)Cl` (centres unmarked) [SM10] was run?
The MBC was 25 µM (≈ 10.8 µg/mL).

And the MIC (APEC O1)?
The MIC was 25 µM (≈ 10.8 µg/mL).

And the MBC (APEC O15)?
The MBC was 100 µM (≈ 43.3 µg/mL).

And the MIC (APEC O15)?
The MIC was 50 µM (≈ 21.7 µg/mL).

What about the MBC (APEC O35) of the same molecule?
The MBC was 50 µM (≈ 21.7 µg/mL).

And the MIC (APEC O35)?
The MIC was 25 µM (≈ 10.8 µg/mL).

And the MBC (APEC O115)?
The MBC was 50 µM (≈ 21.7 µg/mL).

What about the MIC (APEC O115) of the same molecule?
Its MIC is 25 µM (≈ 10.8 µg/mL).

What about the MBC (APEC O78-53) of the same molecule?
Its MBC is 50 µM (≈ 21.7 µg/mL).

And the MIC (APEC O78-53)?
The MIC was 25 µM (≈ 10.8 µg/mL).

And the MBC (APEC O2-211)?
Its MBC is 50 µM (≈ 21.7 µg/mL).

And the MIC (APEC O2-211)?
The MIC was 25 µM (≈ 10.8 µg/mL).

What about the “cytological profile (FM4-64 / SYTO-9 staining)” value (APEC O78 [1]) of the same molecule?
The value was “filamentous or short rods (spheroplasts) morphology (PG synthesis inhibitors)”.

What about the “uptake of crystal violet compared with DMSO” value (APEC O78 [2]) of the same molecule?
Its value is “increased the uptake of crystal violet”.

And the “260 nm absorbing materials in supernatant compared with DMSO” value (APEC O78 [3])?
Its value is “significantly (P < 0.05, Student’s t-test) increased”.

And the “280 nm absorbing materials in supernatant compared with DMSO” value (APEC O78 [3])?
Its value is “significantly (P < 0.05, Student’s t-test) increased”.

And the “Absorbance 280 nm of treated supernatant” value (APEC O78 [3]; DMSO 2.58, superscript a P < 0.05 vs DMSO)?
Its value is 2.73^a.

And the “Absorbance 260 nm of treated supernatant” value (APEC O78 [3]; DMSO 3.77, superscript a P < 0.05 vs DMSO)?
Its value is 3.98^a.

And the minimal effective concentration ([4]; Escherichia coli, O1, Caco-2, 6 h treatment, read-out: SMs intracellular APEC clearance concentration)?
Its minimal effective concentration is 100 µM.

What about the “intracellular APEC clearance concentration as multiple of MIC (superscript)” value ([4]; O1, Caco-2) of the same molecule?
The value was “c (4X MIC)”.

What about the “concentration at which the SM significantly (P < 0.01) reduced intracellular APEC (superscript of t-statistic)” value ([4]; O1, Caco-2, 6 h) of the same molecule?
The value was “b (1X MIC)”.

And the minimal effective concentration ([5]; Escherichia coli, O1, HD11, 6 h treatment, read-out: SMs intracellular APEC clearance concentration)?
The minimal effective concentration was > 100 µM.

And the “concentration at which the SM significantly (P < 0.01) reduced intracellular APEC (superscript of t-statistic)” value ([5]; O1, HD11, 6 h)?
The value was “b (1X MIC)”.

And the minimal effective concentration ([6]; Escherichia coli, O1, THP-1, 6 h treatment, read-out: SMs intracellular APEC clearance concentration)?
Its minimal effective concentration is > 100 µM.

And the “concentration at which the SM significantly (P < 0.01) reduced intracellular APEC (superscript of t-statistic)” value ([6]; O1, THP-1, 6 h)?
Its value is “b (1X MIC)”.

And the minimal effective concentration ([7]; Escherichia coli, O2, Caco-2, 6 h treatment, read-out: SMs intracellular APEC clearance concentration)?
The minimal effective concentration was 100 µM.

And the “intracellular APEC clearance concentration as multiple of MIC (superscript)” value ([7]; O2, Caco-2)?
Its value is “c (4X MIC)”.

And the “concentration at which the SM significantly (P < 0.01) reduced intracellular APEC (superscript of t-statistic)” value ([7]; O2, Caco-2, 6 h)?
The value was “b (1X MIC)”.

And the minimal effective concentration ([8]; Escherichia coli, O2, HD11, 6 h treatment, read-out: SMs intracellular APEC clearance concentration)?
Its minimal effective concentration is 100 µM.

What about the “intracellular APEC clearance concentration as multiple of MIC (superscript)” value ([8]; O2, HD11) of the same molecule?
Its value is “c (4X MIC)”.

And the “concentration at which the SM significantly (P < 0.01) reduced intracellular APEC (superscript of t-statistic)” value ([8]; O2, HD11, 6 h)?
Its value is “b (1X MIC)”.

And the minimal effective concentration ([9]; Escherichia coli, O2, THP-1, 6 h treatment, read-out: SMs intracellular APEC clearance concentration)?
The minimal effective concentration was 50 µM.

And the “concentration at which the SM significantly (P < 0.01) reduced intracellular APEC (superscript of t-statistic)” value ([9]; O2, THP-1, 6 h)?
The value was “b (1X MIC)”.

And the minimal effective concentration ([10]; Escherichia coli, O78, Caco-2, 6 h treatment, read-out: SMs intracellular APEC clearance concentration)?
Its minimal effective concentration is 100 µM.

What about the “intracellular APEC clearance concentration as multiple of MIC (superscript)” value ([10]; O78, Caco-2) of the same molecule?
Its value is “c (4X MIC)”.

What about the “concentration at which the SM significantly (P < 0.01) reduced intracellular APEC (superscript of t-statistic)” value ([10]; O78, Caco-2, 6 h) of the same molecule?
Its value is “b (1X MIC)”.

And the minimal effective concentration ([11]; Escherichia coli, O78, HD11, 6 h treatment, read-out: SMs intracellular APEC clearance concentration)?
The minimal effective concentration was 50 µM.

What about the “intracellular APEC clearance concentration as multiple of MIC (superscript)” value ([11]; O78, HD11) of the same molecule?
The value was “b (2X MIC)”.

And the “concentration at which the SM significantly (P < 0.01) reduced intracellular APEC (superscript of t-statistic)” value ([11]; O78, HD11, 6 h)?
Its value is “c (2XMIC)”.

And the minimal effective concentration ([12]; Escherichia coli, O78, THP-1, 6 h treatment, read-out: SMs intracellular APEC clearance concentration)?
Its minimal effective concentration is 100 µM.

What about the “intracellular APEC clearance concentration as multiple of MIC (superscript)” value ([12]; O78, THP-1) of the same molecule?
Its value is “c (4X MIC)”.

What about the “concentration at which the SM significantly (P < 0.01) reduced intracellular APEC (superscript of t-statistic)” value ([12]; O78, THP-1, 6 h) of the same molecule?
Its value is “b (1X MIC)”.

What about the minimal effective concentration ([13]; Escherichia coli, 6 h, O78, O2 and O1, Caco-2, HD11, THP-1, 6 h, read-out: concentration clearing intracellular APEC) of the same molecule?
Its minimal effective concentration is ≤ 100 µM.

And the “ranking in clearing intracellular APEC” value ([13]; all tested serotypes and cells)?
Its value is “most effective SMs in clearing intracellular APEC serotypes in all tested cells”.
